Reference: paper PMC7933320, “Cytochalasins from Xylaria sp. CFL5, an Endophytic Fungus of Cephalotaxus fortunei” (Natural Products and Bioprospecting, 2020)
pIC50: −log10 of the molar value.

Legend:
LAG3/FGL1 = biological target: T1, LAG3/FGL1 (Homo sapiens, UniProt P18627); assay: LAG3/FGL1 binding assay (HTRF, Cisbio kit); conditions: for inhibition at 50 µM: read-out: inhibition rate against LAG3/FGL1
T1 sequence (P18627 23-450 limits assumed): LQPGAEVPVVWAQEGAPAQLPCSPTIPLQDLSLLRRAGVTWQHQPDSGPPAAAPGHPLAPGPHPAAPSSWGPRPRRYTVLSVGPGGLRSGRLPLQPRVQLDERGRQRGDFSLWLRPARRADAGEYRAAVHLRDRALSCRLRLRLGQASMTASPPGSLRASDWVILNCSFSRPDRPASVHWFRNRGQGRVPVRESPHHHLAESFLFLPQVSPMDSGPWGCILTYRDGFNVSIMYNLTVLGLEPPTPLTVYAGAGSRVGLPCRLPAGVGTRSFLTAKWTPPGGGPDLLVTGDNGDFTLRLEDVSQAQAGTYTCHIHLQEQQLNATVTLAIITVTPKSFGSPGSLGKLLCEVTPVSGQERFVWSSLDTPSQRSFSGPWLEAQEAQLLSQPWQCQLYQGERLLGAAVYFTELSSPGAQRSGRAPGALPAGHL
Method: (§1) Using the following fluorescence intensity (F) measurements at 665 nm, such as the signals of positive control (Fp), blank control (Fb), and experimental groups (Fe), the inhibition rate was calculated at each of the compound concentration levels. The inhibitory activity of compound against the interaction of LAG3 with MHC II was evaluated based on the formula as follow: Inhibition rate = (Fp − Fe)/(Fp − Fb) × 100%. IC50 values were calculated by linear regression of a dose-dependent inhibition rate curve.
The tested principles and methods were similar to those of LAG3/MHC II. Using LAG3/FGL1 binding assay kit from Cisbio, the inhibition activity of tested compounds on the binding between LAG3 and MHC II was evaluated. […] Moreover, the compositions of tested groups, positive control, negative control, blank control were analogical with those of LAG3/MHC II kit. The experimental operations and statistical analysis were also identical with above-mentioned LAG3/MHC II kit.

LAG3/MHC II = biological target: T2, LAG3/MHC II (Homo sapiens, UniProt P18627); assay: LAG3/MHC II binding assay (HTRF, Cisbio kit); conditions: for inhibition at 50 µM: read-out: inhibition rate against LAG3/MHC II
T2 sequence (P18627 23-450 limits assumed): T1 sequence (P18627 23-450 limits assumed)
Method: Utilizing HTRF (Homogeneous Time-resolved Fluorescence) technology [34, 35], the inhibition activity of tested compounds interfering in the interaction between MHC II and LAG3 proteins was evaluated. The activity was measured using LAG3/MHC II binding assay kit commercially available from Cisbio. […] 2 μL tested solutions, 4 μL Tag1-LAG3 protein, and 4 μL Tag2-MHC II protein were added in sterile 96-well dishes. After incubation for 15 min in room temperature, 5 μL anti-Tag1-Tb^3+ and 5 μL anti-Tag2-XL665 (or 10 μL of pre-mixed anti-tag detection reagents) were added into each well. The concentration of DMSO in each well was kept below 0.5% and the final volume in each well was 20 μL in the moment. Then the 96-well dishes were kept incubating for 1 h to overnight at room temperature. Subsequently, remove the plate sealer and read specific emission signal at 665 nm on an HTRF compatible reader. […] The negative control consisted of 4 μL Tag2-MHC II protein, 5 μL anti-Tag1-Tb^3+ and 5 μL anti-Tag2-XL665, as well as 6 μL diluent. In blank control, 5 μL anti-Tag1-Tb^3+, 10 μL diluent, and 5 μL detection buffer were existed.
as §1

[1] = Cytotoxicity by the CCK8 assay; type: cell-based; conditions: human, AGS cells, read-out: inhibition rate, cytotoxicity against AGS cells
Method: With adriamycin as the positive control, compounds 1, 4–9 were assessed for cytotoxicity against AGS, U251, and MDA-MB-231 by the CCK8 assay (Tables 3 and 4).

SMILES: CC(=O)OC1C=CC(C)C(=O)C(C)CC=CC2C=C(C)C(C)C3C(Cc4ccccc4)NC(=O)C213 (stereo not shown) [Compound 1, xylariasin A]
- pIC50 (LAG3/FGL1): 4.93
- inhibition at 50 µM (LAG3/FGL1): 83.9%
- pIC50 (LAG3/MHC II): 5.32
- inhibition at 50 µM (LAG3/MHC II): 82.4%

SMILES: CC(=O)OC1C=CC(C)(O)C(=O)C(C)CC=CC2C=C(C)C(C)C3C(Cc4ccccc4)NC(=O)C213 (stereo not shown) [Compound 4, zygosporin G]
- inhibition at 50 µM (LAG3/FGL1): 24.9%
- inhibition at 50 µM (LAG3/MHC II): 55.7%

SMILES: CC(=O)OC1C=CC(C)(O)C(=O)C(C)CC=CC2C=C(CO)C(C)C3C(Cc4ccccc4)NC(=O)C213 (stereo not shown) [Compound 5, 12-hydroxyl zygosporin G]
- inhibition at 50 µM (LAG3/FGL1): 79.1%
- pIC50 (LAG3/MHC II): 5.50
- inhibition at 50 µM (LAG3/MHC II): 85.3%

SMILES: C=C1[C@@H](C)[C@H]2[C@H](Cc3ccccc3)NC(=O)[C@]23[C@H](OC(C)=O)/C=C/[C@@](C)(O)C(=O)[C@@H](C)C/C=C/[C@H]3[C@@H]1O [Compound 6, cytochalasin D]
- inhibition at 50 µM (LAG3/FGL1): 2.66%
- inhibition at 5 µM [1]: 94%

SMILES: C=C1C(C)C2C(Cc3ccccc3)NC(=O)C23C(OC(C)=O)C=CC(C)C(=O)C(C)CC=CC3C1O (stereo not shown) [Compound 7, zygosporin E]
- pIC50 (LAG3/FGL1): 5.36
- inhibition at 50 µM (LAG3/FGL1): 92.7%
- pIC50 (LAG3/MHC II): 5.63
- inhibition at 50 µM (LAG3/MHC II): 82.7%

SMILES: CC(=O)OC1C=CC(C)(O)C(=O)C(C)CC=CC2C(=O)C(C)C(C)C3C(Cc4ccccc4)NC(=O)C123 (stereo not shown) [Compound 8]
- pIC50 (LAG3/FGL1): 5.13
- inhibition at 50 µM (LAG3/FGL1): 92.5%
- pIC50 (LAG3/MHC II): 5.59
- inhibition at 50 µM (LAG3/MHC II): 78.9%

SMILES: CC(=O)OC1C=CC(C)(O)C(=O)C(C)CC=CC2C(O)C(C)=C(C)C3C(Cc4ccccc4)NC(=O)C123 (stereo not shown) [Compound 9, cytochalasin C]
- inhibition at 50 µM (LAG3/FGL1): 58.4%
- inhibition at 5 µM [1]: 64%
- inhibition at 50 µM (LAG3/MHC II): 77.4%
